# Assay results taken from patent US10501453B2, “Benzothiazole or benzoxazole compounds as SUMO activators” (Icahn School of Medicine at Mount Sinai, priority 2012, dated 2019).
# Key:
# [1] = system: YFP-SUMO1; assay: YFP-SUMO1 accumulation (cell image) in HEK-293 cells expressing YFP-SUMO1 and pcDNA3.0-SERCA2a; type: cell-based; conditions: increase vs. DMSO; for fold induction at 10 µM: Homo sapiens, HEK293, 24 hours; for YFP accumulation: 10 μM, 24 hours
# From the text: (§1) The following antibodies were used for immunoblotting and immunoprecipitation (IP): polyclonal anti-SERCA2a (21th century Biochem Inc.), monoclonal anti-GAPDH (Sigma-Aldrich, catalog no. G8795), monoclonal anti-SUMO 1 (Cell Signaling Technology Inc., catalog no. 4930), anti-mouse horseradish peroxidase (HRP) (Pierce Biotechnology Inc., catalog no. 32430), and anti-rabbit HRP (Pierce Biotechnology Inc., catalog no. 32460). YFP-tagged SUMO1, pcDNA3.0-SERCA2a, and HA-tagged Ubc9 plasmids were used for the transfection. The plasmid DNA was amplified in the Escherichia coli strain DH5a and extracted by using a commercial purification kit (Qiagen, catalog no. 12263). Purified plasmid was resuspended in sterile TE buffer (10 mM Tris-HCl and 1 mM EDTA, pH 7.6). Only the preparation highest purity (A260/A280>1.8) was used for transfection. 1 μg of each plasmid was used for transfection. HEK-293 cells (American Type Culture Collection, catalog no. CRL-1873) were grown at 37° C. and under a 5% CO2 humidified atmosphere in Dulbecco's modified Eagle's medium (DMEM, Cellgro, catalog no. 10-0 13-CM) containing 10% fetal bovine serum (SAFC Bioscience, catalog no. 12107) and 100 i.u of penicillin/ml and 100 μg of streptomycin/ml. HEK-293 cells were seeded at a density of 3-5×10^5 cells per 60 mm culture dish in DMEM. The cells were transiently transfected using Lipofectamine 2000 (Invitrogen, catalog no. 11668) with indicated expression plasmids. After 24 hours, the cells were treated with either small molecules or dimethyl sulfoxide (DMSO, Sigma-Aldrich, catalog no. D2650).
# (§2) Each compound was added at 10 μM. DMSO was used as a control. After 24 hours at 37° C., SERCA2a SUMOylation and functional analysis were determined.
# Cellular permeability and potential activity of the compounds were examined by tracking of the YFP-SUMO1. HEK-293 cells expressing YFP-SUMOI and pcDNA3.0-SERCA2a were incubated with either 10 μM DMSO or 10 μM small molecules for 24 hours at 37° C. Fluorescent signals were monitored by fluorescence microscopy. HA-tagged Ubc9 expressing cells were served as a positive control.
# The ability of the Example compound to SUMOylate SERCA2a was examined using an in vitro system in HEK 293 cells where both SERCA2a and SUMO 1 are expressed. The cellular permeability and potential activity of the Example compounds was examined by tracking of the YFP-SUM01. HEK-293 cells expressing YFP-SUM01 and pcDNA3.0-SERCA2a were treated with either 10 μM DMSO or 10 μM indicated Example 1 for 24 hrs. Fluorescent signals were monitored by fluorescence microscopy. HA-Ubc9 expressing cells were served as a positive control. The SERCA2a SUMOylation profiling was then analyzed by using the same cells (FIG. 1B, WCL, whole cell lysates; S-SERCA2a, SUMOylated SERCA2a).
# [2] = Solubility (Table 2)
# [3] = system: HEK-293 cells; assay: Toxicity (Table 2; cytotoxicity in the compound screen)
# [4] = system: SERCA2a; assay: SERCA2a SUMOylation assay in HEK-293 cells (immunoprecipitation/immunoblotting); type: cell-based; conditions: compared with DMSO control; 10 μM
# From the text: as §1, §2
# Equal amounts of protein from either small molecule treated or DMSO treated cells or immunoprecipitates were resolved by 7.5% SDS-PAGE and transferred to nitrocellulose membranes (Bio-Rad, catalog no. 162-0112). The membranes were blocked for 1 hour at room temperature with 5% non-fat milk (Cell Signaling Technology Inc., catalog no. 9999) in TBST (10 mM Tris-HCl, 150 mM NaCl, and 0.05% tween-20, pH 8.0). The blots were incubated with specific primary antibodies at 4° C. for overnight. The blots were then washed five times for 10 minutes each with TBST and incubated for 1 hour with HRP-conjugated secondary antibodies in TBST with 5% non-fat milk. After five times TBST washes, the protein bands were visualized with enhanced chemiluminescence (Pierce Biotechnology Inc., catalog no. 32132) and exposed to x-ray film (Denville Scientific Inc., catalog no. E3012). GAPDH expression provided an internal control.
# Post-transfection (48 hours), the HEK-293 cells were rinsed twice with phosphate-buffered saline (PBS, Cellgro, catalog no. 21-040-CM) and lysed in 1% Nonidet P-40 lysis buffer (Boston Bioproducts, catalog no. BP-119) with 10 mM N-ethylmaleimide (NEM, Sigma-Aldrich, catalog no. N3876) and […] inhibitor cocktail (Complete Mini Tablet, Roche Applied Science, catalog no. 11836153001). 2 mg of protein were mixed with the anti-SERCA2a antibodies for overnight at 4° C. in lysis buffer. Pre-washed protein A-Separose beads (Pierce Biotechnology Inc., catalog no. 20333) was added to each sample and incubated 1 hour at 4° C. with gentle rocking. Immunocomplexes were washed with lysis buffer three times and precipitated by centrifugation at 12000×g for 10 seconds. The immunocomplexes were resuspended in SDS sample buffer and subjected to immunoblotting. Controls for the immunoprecipitations were performed using an anti-rabbit IgG equal to that of the primary precipitating antibody. Ten percent of whole cell lysates used in the immunoprecipitation was loaded for subsequent immunoblotting.
# The ability of the Example compound to SUMOylate SERCA2a was examined using an in vitro system in HEK 293 cells where both SERCA2a and SUMO 1 are expressed. […]
# [5] = DMSO, organic solvent or mixture
Compound,fold induction at 10 µM [1],"solubility [2, 5] [mM]",Toxicity [3],SERCA2a SUMOylation [4],YFP accumulation [1],solubility ([2]; in DMSO (printed for the 10 mM cells))
"COc1cccc2sc(Nc3nnc(-c4ccc(F)cc4)o3)nc12 [Example 5, 5-(4-fluorophenyl)-N-(4-methoxybenzo[d]thiazol-2-yl)-1,3,4-oxadiazol-2-amine]",2.54,10,Non-toxic,Not statistically significant,–,–
"COc1ccc(-c2nnc(Nc3nc4c(OC)cccc4s3)o2)c(OC)c1 [Example 6, 5-(2,4-dimethoxyphenyl)-N-(4-methoxybenzo[d]thiazol-2-yl)-1,3,4-oxadiazol-2-amine]",2.93,10,30%,Not statistically significant,–,–
"Fc1cccc2sc(Nc3nnc(-c4ccccc4)o3)nc12 [Example 7, N-(4-fluorobenzo[d]thiazol-2-yl)-5-phenyl-1,3,4-oxadiazol-2-amine]",2.2,10,Non-toxic,Not statistically significant,–,–
"COc1ccc2nc(Nc3nnc(-c4ccccc4OC)o3)sc2c1 [Example 8, N-(6-methoxybenzo[d]thiazol-2-yl)-5-(2-methoxyphenyl)-1,3,4-oxadiazol-2-amine]",2.37,10,30%,Not statistically significant,–,–
"COc1ccc(-c2nnc(Nc3nc4ccc(OC)cc4s3)o2)cc1 [Example 9, N-(6-methoxybenzo[d]thiazol-2-yl)-5-(4-methoxyphenyl)-1,3,4-oxadiazol-2-amine]",–,–,Toxic,Not statistically significant,Active,Crystallized at 2.5
"COc1ccc2nc(Nc3nnc(-c4ccc(Cl)cc4)o3)sc2c1 [Example 10, 5-(4-chlorophenyl)-N-(6-methoxybenzo[d]thiazol-2-yl)-1,3,4-oxadiazol-2-amine]",–,< 2.5,> 50%,Not statistically significant,Active,–
"Fc1ccc2nc(Nc3nnc(-c4ccccc4Cl)o3)sc2c1 [Example 11, 5-(2-chlorophenyl)-N-(6-fluorobenzo[d]thiazol-2-yl)-1,3,4-oxadiazol-2-amine]",–,< 2.5,> 50%,Not statistically significant,Active,–
"Fc1ccc(-c2nnc(Nc3nc4ccc(F)cc4s3)o2)cc1 [Example 12, N-(6-fluorobenzo[d]thiazol-2-yl)-5-(4-fluorophenyl)-1,3,4-oxadiazol-2-amine]",–,< 2.5,> 50%,Not statistically significant,Active,–
"COc1cccc(-c2nnc(Nc3nc4ccc(F)cc4s3)o2)c1 [Example 13, N-(6-fluorobenzo[d]thiazol-2-yl)-5-(3-methoxyphenyl)-1,3,4-oxadiazol-2-amine]",–,< 2.5,> 50%,Not statistically significant,Active,–
"COc1cccc(-c2nnc(Nc3nc4cc(OC)ccc4s3)o2)c1 [Example 15, N-(5-methoxybenzo[d]thiazol-2-yl)-5-(3-methoxyphenyl)-1,3,4-oxadiazol-2-amine]",–,< 2.5,> 50%,Not statistically significant,Active,–
"COc1ccc(-c2nnc(Nc3nc4cc(OC)ccc4s3)o2)cc1 [Example 16, N-(5-methoxybenzo[d]thiazol-2-yl)-5-(4-methoxyphenyl)-1,3,4-oxadiazol-2-amine]",–,< 2.5,> 50%,Not statistically significant,Active,–
"COc1ccc(-c2nnc(Nc3nc4cc(OC)c(OC)cc4s3)o2)cc1 [Example 17, N-(5,6-dimethoxybenzo[d]thiazol-2-yl)-5-(4-methoxyphenyl)-1,3,4-oxadiazol-2-amine]",2.2,5,Non-toxic,Not statistically significant,–,–
